In patent US6211155A, “Peptide conjugates derived from thymic hormones, their use as a medicament and compositions containing them” (Institut European de Biologie Cellulaire, priority 1995, dated 2001):
Where no end group is shown, it is not given here.

Legend:
[1] = tested on: Thy 1.2+ thymocytes of the epidermis; test: Thy 1.2+ epidermal cell density after topical application to mouse ear (immunofluorescence); format: in vivo, C57-BL/6 mice; details: for Number of Thy 1.2+ cells per mm^2 of epidermis, batch 1 / Number of Thy 1.2+ cells per mm^2 of epidermis, batch 2 / Number of Thy 1.2+ cells per mm^2 of epidermis, batch 3 / Number of Thy 1.2+ cells per mm^2 of epidermis, batch 4 / Number of Thy 1.2+ cells per mm^2 of epidermis, Mean: C 57 BL/6 mice; for Number of Thy 1.2+ cells per mm^2 of epidermis, Mean: 4 batches; for Thy 1.2+ cells % T: relative to PG controls
Protocol: (§1) I--Experimental Samples--Code: ETF
(§2) In solution in propylene glycol at a concentration of 10^-5 M/ml
(§3) 5 to 7-week-old male C 57-BL/6 mice, which are divided into groups of 4 per cage, and which have free access to water and food and which are subjected to a photoperiod of 12 h of light per 24 hours, are given a topical application of the peptide in propylene glycol (50 μl vol) on the dorsal surface of the ear daily for 5 consecutive days.
(§4) The animals are sacrificed on day 6. The ears are removed, with the dorsal and ventral surfaces being separated.
(§5) The tissues of the dorsal surface are immersed in Na EDTA (0.020 M) at 37° C. for 2 h.
(§6) After incubation, the epidermis is removed in the form of an intact sheet, fixed with acetone and rehydrated in PBS (phosphate buffer).
(§7) The Thy 1-2+ and Ia+ EDC (epidermal dendritic cells) are identified by indirect immunofluorescence double labeling.
(§8) In the case of each epidermal sheet, the number of cells per mm^2 is determined using the peripheral regions of the same surface.
The Thy 1.2+ EDC were identified by indirect immunofluorescence double labeling. The epidermal sheets were fixed with acetone and then rehydrated in PBS.
The tissues were labeled simultaneously, at 4° C. for 16 h, with mouse anti-Thy 1.2+ antibody which was diluted 1:100. The tissue samples were washed three times in PBS for 60 min and then incubated, at 37° C. for 60 min, either with goat antimouse antibody which was coupled to rhodamine and diluted 1:20, or with goat antirabbit antibody which was coupled to fluorescein (fluorescine and diluted 1:20 in PBS. The tissues were then washed in PBS before being mounted as previously described.
(§9) In the case of each epidermal sheet, the number of Ia+ Langerhans cells or Thy 1.2+ EDCs per square millimeter was determined by means of immunofluorescence, using a confocal Zeiss microscope which was equipped for this purpose, in four peripheral areas of the same surface. At least four animals were studied in each of the groups. The density of Ia+ Langerhans cells and Thy 1.2+ EDCs is shown for each measurement.

Ia+ Langerhans cells = test: Ia+ Langerhans cell density after topical application to mouse ear; format: in vivo, C57-BL/6 mice; details: for Number of Ia+ cells per mm^2 of epidermis, batch 1 / Number of Ia+ cells per mm^2 of epidermis, batch 2 / Number of Ia+ cells per mm^2 of epidermis, batch 3 / Number of Ia+ cells per mm^2 of epidermis, batch 4 / Number of Ia+ cells per mm^2 of epidermis, Mean: C 57 BL/6 mice; for Number of Ia+ cells per mm^2 of epidermis, Mean: 4 batches; for Ia+ cells %: relative to PG controls
Protocol: as §1, §2, §3, §4, §5, §6, §7, §8
The EDC (epidermal dendritic cells) carrying the Ia+ marker were identified using an anti-Ia+ monoclonal antibody.
The epidermal sheets are fixed with acetone and then incubated, at 37° C. for 1 h, in the presence of the anti-Ia+ monoclonal antibody, which has been labeled by the indirect immunoperoxidase method (Kit).
After having been incubated at 37° C. for 10 minutes with a solution of aminoethylcarbazole, the preparation is washed with PBS.
as §9

Substance | Number of Thy 1.2+ cells per mm^2 of epidermis, batch 1 ([1]; dose 0.10 Nanog.) | Number of Thy 1.2+ cells per mm^2 of epidermis, batch 2 ([1]; dose 0.10 Nanog.) | Number of Thy 1.2+ cells per mm^2 of epidermis, batch 3 ([1]; dose 0.10 Nanog.) | Number of Thy 1.2+ cells per mm^2 of epidermis, batch 4 ([1]; dose 0.10 Nanog.) | Number of Thy 1.2+ cells per mm^2 of epidermis, Mean ([1]; dose 0.10 Nanog.) | Thy 1.2+ cells % T ([1]; dose 0.10 Nanog.) | Number of Thy 1.2+ cells per mm^2 of epidermis, batch 1 ([1]; dose 0.50 Nanog.) | Number of Thy 1.2+ cells per mm^2 of epidermis, batch 2 ([1]; dose 0.50 Nanog.) | Number of Thy 1.2+ cells per mm^2 of epidermis, batch 3 ([1]; dose 0.50 Nanog.) | Number of Thy 1.2+ cells per mm^2 of epidermis, batch 4 ([1]; dose 0.50 Nanog.) | Number of Thy 1.2+ cells per mm^2 of epidermis, Mean ([1]; dose 0.50 Nanog.) | Thy 1.2+ cells % T ([1]; dose 0.50 Nanog.) | Number of Thy 1.2+ cells per mm^2 of epidermis, batch 1 ([1]; dose 1.00 Nanog.) | Number of Thy 1.2+ cells per mm^2 of epidermis, batch 2 ([1]; dose 1.00 Nanog.) | Number of Thy 1.2+ cells per mm^2 of epidermis, batch 3 ([1]; dose 1.00 Nanog.) | Number of Thy 1.2+ cells per mm^2 of epidermis, batch 4 ([1]; dose 1.00 Nanog.) | Number of Thy 1.2+ cells per mm^2 of epidermis, Mean ([1]; dose 1.00 Nanog.) | Thy 1.2+ cells % T ([1]; dose 1.00 Nanog.) | Number of Ia+ cells per mm^2 of epidermis, batch 1 (Ia+ Langerhans cells; dose 0.10 Nanog.) | Number of Ia+ cells per mm^2 of epidermis, batch 2 (Ia+ Langerhans cells; dose 0.10 Nanog.) | also measured
Adipoyl-Ala-Lys-Ser-Gln-Gly-Gly-Ser-Asn-NH2 (AKSQGGSN-NH2; not fully specified (N-terminus)) [ETF-III, A of the tested sample not restated] | 168 cells per mm^2 | 165 cells per mm^2 | 180 cells per mm^2 | 176 cells per mm^2 | 172.25 cells per mm^2 | 95% | 190 cells per mm^2 | 190 cells per mm^2 | 205 cells per mm^2 | 200 cells per mm^2 | 196.25 cells per mm^2 | 122% | 200 cells per mm^2 | 220 cells per mm^2 | 216 cells per mm^2 | 210 cells per mm^2 | 211.50 cells per mm^2 | 140% | 376 cells per mm^2 | 382 cells per mm^2 | Number of Ia+ cells per mm^2 of epidermis, batch 3 (Ia+ Langerhans cells; dose 0.10 Nanog.): 387 cells per mm^2; Number of Ia+ cells per mm^2 of epidermis, batch 4 (Ia+ Langerhans cells; dose 0.10 Nanog.): 399 cells per mm^2; Number of Ia+ cells per mm^2 of epidermis, Mean (Ia+ Langerhans cells; dose 0.10 Nanog.): 386.00 cells per mm^2; Ia+ cells % (Ia+ Langerhans cells; dose 0.10 Nanog.): 277%; Number of Ia+ cells per mm^2 of epidermis, batch 1 (Ia+ Langerhans cells; dose 0.50 Nanog.): 380 cells per mm^2; Number of Ia+ cells per mm^2 of epidermis, batch 2 (Ia+ Langerhans cells; dose 0.50 Nanog.): 388 cells per mm^2; Number of Ia+ cells per mm^2 of epidermis, batch 3 (Ia+ Langerhans cells; dose 0.50 Nanog.): 299 cells per mm^2; Number of Ia+ cells per mm^2 of epidermis, batch 4 (Ia+ Langerhans cells; dose 0.50 Nanog.): 388 cells per mm^2; Number of Ia+ cells per mm^2 of epidermis, Mean (Ia+ Langerhans cells; dose 0.50 Nanog.): 363.75 cells per mm^2; Ia+ cells % (Ia+ Langerhans cells; dose 0.50 Nanog.): 255%; Number of Ia+ cells per mm^2 of epidermis, batch 1 (Ia+ Langerhans cells; dose 1.00 Nanog.): 305 cells per mm^2; Number of Ia+ cells per mm^2 of epidermis, batch 2 (Ia+ Langerhans cells; dose 1.00 Nanog.): 400 cells per mm^2; Number of Ia+ cells per mm^2 of epidermis, batch 3 (Ia+ Langerhans cells; dose 1.00 Nanog.): 398 cells per mm^2; Number of Ia+ cells per mm^2 of epidermis, batch 4 (Ia+ Langerhans cells; dose 1.00 Nanog.): 410 cells per mm^2; Number of Ia+ cells per mm^2 of epidermis, Mean (Ia+ Langerhans cells; dose 1.00 Nanog.): 378.25 cells per mm^2; Ia+ cells % (Ia+ Langerhans cells; dose 1.00 Nanog.): 269%
A-Arg-Lys-Asp-Val-NH2 (RKDV; not fully specified (N-terminus, C-terminus)) [ETF-XIX, A not specified for the tested sample] | 216 cells per mm^2 | 210 cells per mm^2 | 219 cells per mm^2 | 212 cells per mm^2 | 214.25 cells per mm^2 | 143% | 220 cells per mm^2 | 215 cells per mm^2 | 228 cells per mm^2 | 216 cells per mm^2 | 219.75 cells per mm^2 | 149% | 227 cells per mm^2 | 238 cells per mm^2 | 230 cells per mm^2 | 225 cells per mm^2 | 230.00 cells per mm^2 | 161% | 360 cells per mm^2 | 390 cells per mm^2 | Number of Ia+ cells per mm^2 of epidermis, batch 3 (Ia+ Langerhans cells; dose 0.10 Nanog.): 378 cells per mm^2; Number of Ia+ cells per mm^2 of epidermis, batch 4 (Ia+ Langerhans cells; dose 0.10 Nanog.): 320 cells per mm^2; Number of Ia+ cells per mm^2 of epidermis, Mean (Ia+ Langerhans cells; dose 0.10 Nanog.): 362.00 cells per mm^2; Ia+ cells % (Ia+ Langerhans cells; dose 0.10 Nanog.): 253%; Number of Ia+ cells per mm^2 of epidermis, batch 1 (Ia+ Langerhans cells; dose 0.50 Nanog.): 388 cells per mm^2; Number of Ia+ cells per mm^2 of epidermis, batch 2 (Ia+ Langerhans cells; dose 0.50 Nanog.): 398 cells per mm^2; Number of Ia+ cells per mm^2 of epidermis, batch 3 (Ia+ Langerhans cells; dose 0.50 Nanog.): 386 cells per mm^2; Number of Ia+ cells per mm^2 of epidermis, batch 4 (Ia+ Langerhans cells; dose 0.50 Nanog.): 400 cells per mm^2; Number of Ia+ cells per mm^2 of epidermis, Mean (Ia+ Langerhans cells; dose 0.50 Nanog.): 393.00 cells per mm^2; Ia+ cells % (Ia+ Langerhans cells; dose 0.50 Nanog.): 283%; Number of Ia+ cells per mm^2 of epidermis, batch 1 (Ia+ Langerhans cells; dose 1.00 Nanog.): 400 cells per mm^2; Number of Ia+ cells per mm^2 of epidermis, batch 2 (Ia+ Langerhans cells; dose 1.00 Nanog.): 410 cells per mm^2; Number of Ia+ cells per mm^2 of epidermis, batch 3 (Ia+ Langerhans cells; dose 1.00 Nanog.): 438 cells per mm^2; Number of Ia+ cells per mm^2 of epidermis, batch 4 (Ia+ Langerhans cells; dose 1.00 Nanog.): 415 cells per mm^2; Number of Ia+ cells per mm^2 of epidermis, Mean (Ia+ Langerhans cells; dose 1.00 Nanog.): 415.75 cells per mm^2; Ia+ cells % (Ia+ Langerhans cells; dose 1.00 Nanog.): 306%
